In patent US11266649B2, “Pharmaceutical formulations” (Corvus Pharmaceuticals, Inc., priority 2018, dated 2022):

Tests used:
[1] = Storage stability: Total Impurities by stability-indicating HPLC; type: physicochemical; settings: API (Formula (III)) itself, reference
[2] = Particle size distribution by laser diffraction, before and after jet-mill micronization; type: physicochemical
Description: “Particle size distribution” or “PSD” or “size distribution” refers to the size of particles present in their relative proportions in a sample, as measured by laser diffraction spectroscopy. In aspects, the particle size distribution refers to the particle size distribution of all the drug particles in the composition. The particle size distribution of a sample is measured by laser diffraction spectroscopy. Laser diffraction spectrometers are commercially available as, e.g., MASTERSIZER® 3000 from Malvern Instruments Ltd, and HORIBA® LA-950 by Horiba Instruments, Inc., Irvine Calif. For laser diffraction spectroscopy, particle size distribution is generally described by D values, such as D90. In aspects, the laser diffraction spectroscopy can be analyzed by the Fraunhofer theory. In aspects, the laser diffraction spectroscopy can be analyzed by the Mie scattering theory. In aspects, the laser diffraction spectroscopy can be analyzed by a combination of the Fraunhofer theory and the Mie scattering theory.
Formulation (III) was micronized using a Sturtevant SDM jet mill with a 2 inch diameter loop. The process parameters were: inlet air pressure 120 psi; grind chamber 100 psi; nozzle air pressure 80 psi; manual fee rate.
Formulation (III) was micronized using a Sturtevant SDM jet mill with a 4 inch diameter loop. The process parameters were: inlet air pressure 120 psi; grind chamber 100 psi; nozzle air pressure 80 psi; manual fee rate.

[3] = 1 pass micronization, jet mill 2 inch diameter loop
[4] = 1 pass micronization, jet mill 4 inch diameter loop
[5] = 2 pass micronization, jet mill 4 inch diameter loop
[6] = Before micronization, Table 1A, jet mill 2 inch diameter loop
[7] = Before micronization, Table 1B, jet mill 4 inch diameter loop

Compound: Cc1ccc(-c2nc(N)nc3c2nnn3Cc2cccc(COC3CCOC3)n2)o1 (centres unmarked) [Formula (III)]
- Total Impurities [1]: 0.80%
- Total Impurities ([1]; listed as API): 0.80%
- D10 [2, 3]: 0.9 microns
- D50 [2, 3]: 3.3 microns
- D90 [2, 3]: 8.2 microns
- D10 [2, 4]: 1.1 microns
- D50 [2, 4]: 4.3 microns
- D90 [2, 4]: 20.2 microns
- D10 [2, 5]: 0.9 microns
- D50 [2, 5]: 3.1 microns
- D90 [2, 5]: 8.3 microns
- D10 [2, 6]: 2.3 microns
- D50 [2, 6]: 8.6 microns
- D90 [2, 6]: 31.1 microns
- D10 [2, 7]: 2.3 microns
- D50 [2, 7]: 8.6 microns
- D90 [2, 7]: 31.1 microns
